Assays:
FAAH = assay: Changes in plasma fatty acid amide (FAA) levels in response to the FAAH inhibitor; type: in vivo, human; details: 450 mg/day, plasma drug level 200 nm/ml to about 600 ng/ml, predicted maximal change
Method: In other embodiments, upon achieving trough steady state plasma, plasma FAA levels will be minimal. Conversely, at the 450 mg/day dose, changes in plasma FAA levels in response to 3-{[5-(2-Fluorophenyl)pyridin-2-yl]oxy}-N-(pyridazin-3-yl)azetidine-1-carboxamide ranging from 200 nm/ml to about 600 ng/ml are predicted to be maximal; in the order of 3, 4, 8 and 5 ng/mL for AEA, LEA, OEA and PEA, respectively.

adults with PTSD = assay: Exploratory behavioral analyses 1: effect relative to placebo on PTSD symptoms; type: in vivo, human
Method: (a). To evaluate the effect of daily 450 mg of 3-{[5-(2-Fluorophenyl)pyridin-2-yl]oxy}-N-(pyridazin-3-yl)azetidine-1-carboxamide relative to placebo in mitigating PTSD symptoms in adults with PTSD. Patient will be receiving a 450 mg dose of the study agent.
(b). To evaluate the effect of 450 mg of the study drug relative to placebo in mitigating PTSD symptoms that comprise a contemporary, five-factor phenotypic model of this disorder, as well as secondary “intermediate phenotype” measures of anxiety sensitivity and somatic anxiety.

SMILES: O=C(Nc1cccnn1)N1CC(Oc2ccc(-c3ccccc3F)cn2)C1 [3-{[5-(2-Fluorophenyl)pyridin-2-yl]oxy}-N-(pyridazin-3-yl)azetidine-1-carboxamide]
- change in plasma FAA level: AEA (FAAH): ~3 ng/mL
- change in plasma FAA level: LEA (FAAH): ~4 ng/mL
- change in plasma FAA level: OEA (FAAH): ~8 ng/mL
- change in plasma FAA level: PEA (FAAH): ~5 ng/mL
- PTSD symptoms of the five-factor phenotypic model, anxiety sensitivity and somatic anxiety, relative to placebo (adults with PTSD; 450 mg daily dose): most pronounced effect on reducing anxious arousal
- overall severity of PTSD symptoms relative to placebo (adults with PTSD; daily 450 mg): reduction in overall severity of PTSD symptoms

Source: US20250255866A1, “USES OF FATTY ACID AMIDE HYDROLASE INHIBITORS IN TREATMENT OF TRAUMA RELATED PSYCHIATRIC DISORDERS” (Neuritek Therapeutics Ltd., priority 2020, published 2025)
